According to patent US9394228B2, “Methods of treatment using lipid compounds” (PRONOVA BIOPHARMA NORGE AS, priority 2010, dated 2016):

How the values were obtained:
[1] = molecular target: T1, PPAR[…] (positive control GW501516, i.e. PPARδ) (Homo sapiens, UniProt Q03181); assay: PPAR activation in vitro, mammalian-one-hybrid (M1H) GAL4-PPAR-LBD luciferase reporter assay; assay type: cell-based; details: second PPAR[…] column; for Efficacy: efficacy of positive control GW501516 set to 100%, HEK293 cells; for EC50: transiently transfected HEK293 cells, compound incubation 16-20 hours
T1 construct: expressed in transfected cells; host or cells: HEK293
T1 sequence (Q03181 211-439 limits assumed): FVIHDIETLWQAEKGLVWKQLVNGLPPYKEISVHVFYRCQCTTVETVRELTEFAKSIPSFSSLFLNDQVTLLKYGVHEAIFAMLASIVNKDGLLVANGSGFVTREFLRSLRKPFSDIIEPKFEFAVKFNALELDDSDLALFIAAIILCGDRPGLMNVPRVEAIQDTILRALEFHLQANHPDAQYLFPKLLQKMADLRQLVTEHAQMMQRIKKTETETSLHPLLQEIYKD
T1 sequence (P04386 1-147 partner limits assumed): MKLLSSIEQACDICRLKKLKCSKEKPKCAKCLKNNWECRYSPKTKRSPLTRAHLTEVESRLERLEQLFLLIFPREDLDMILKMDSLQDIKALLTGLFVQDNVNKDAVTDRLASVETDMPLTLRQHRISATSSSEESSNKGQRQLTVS
Protocol: (§1) Compounds (A)-(C) and a positive control were tested at six different concentrations in duplicate:
(§2) The positive controls were GW7647 (PPAR[…]), GW501516 (PPAR[…]) and rosiglitazone (PPAR[…]). The efficacy of the controls were set to 100%.
(§3) Assays were carried out in vitro using mammalian-one-hybrid assays (M1H) comprising GAL4-DNA binding domain-PPAR-LBD fusion constructs in conjunction with 5×GAL4-sites driven Photinus pyralis luciferase reporter constructs in transiently transfected HEK293 cells. The cells were transfected 4-6 hours and grown overnight before compounds were added. Compound incubation was 16-20 hours. Renilla reniformis luciferase, driven by a constitutive promoter, was included as internal control to improve experimental accuracy.

[2] = molecular target: T2, PPAR[…] (positive control GW7647, i.e. PPARα) (Homo sapiens, UniProt Q07869); assay: as above; assay type: cell-based; details: efficacy of positive control GW7647 set to 100%; HEK293 cells; first PPAR[…] column
T2 construct: expressed in transfected cells; host or cells: HEK293
T2 sequence (Q07869 239-466 limits assumed, species assumed): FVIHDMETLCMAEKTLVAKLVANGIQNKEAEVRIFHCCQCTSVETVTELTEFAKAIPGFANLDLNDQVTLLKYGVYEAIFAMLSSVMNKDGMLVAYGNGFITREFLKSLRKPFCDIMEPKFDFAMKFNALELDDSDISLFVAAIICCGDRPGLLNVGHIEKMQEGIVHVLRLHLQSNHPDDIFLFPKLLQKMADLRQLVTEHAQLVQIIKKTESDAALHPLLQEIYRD
T2 sequence (P04386 1-147 partner limits assumed, species assumed): as the sequence (P04386 1-147 partner limits assumed) above
Protocol: as §1, §2, §3

[3] = molecular target: T3, PPAR[…] (positive control rosiglitazone, i.e. PPARγ) (Homo sapiens, UniProt P37231); assay: as above; assay type: cell-based; details: efficacy of positive control rosiglitazone set to 100%; HEK293 cells; third PPAR[…] column
T3 construct: expressed in transfected cells; host or cells: HEK293
T3 sequence (P37231 238-503 limits assumed): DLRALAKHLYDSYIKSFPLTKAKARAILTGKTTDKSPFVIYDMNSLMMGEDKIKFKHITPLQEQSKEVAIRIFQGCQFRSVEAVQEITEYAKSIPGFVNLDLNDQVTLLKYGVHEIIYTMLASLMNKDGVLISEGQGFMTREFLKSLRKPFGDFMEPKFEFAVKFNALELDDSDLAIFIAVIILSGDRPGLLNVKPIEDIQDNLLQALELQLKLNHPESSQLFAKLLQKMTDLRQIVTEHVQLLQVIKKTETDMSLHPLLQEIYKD
T3 sequence (P04386 1-147 partner limits assumed): as the sequence (P04386 1-147 partner limits assumed) above
Protocol: as §1, §2, §3

[4] = test system: APOE*3Leiden.CETP transgenic mice; assay: Effects on in vivo atherosclerosis development in a mouse model
Excerpt: The APOE*3Leiden.CETP transgenic mouse has proven to be representative of the human situation with respect to plasma lipoprotein levels and its responsiveness to hypolipidemic drugs (like statins, fibrates etc.) and nutritional intervention. APOE*3Leiden.CETP mice develop atherosclerotic lesions in the aorta resembling those found in humans with respect to cellular composition and morphological and immunohistochemical characteristics.
Female APOE*3Leiden.CETP mice were put on a Western-type diet (WTD) with 0.15% cholesterol and 15% saturated fat; resulting in plasma cholesterol levels of about 13-15 mM. After a 3 week run-in period on the WTD, the mice were sub-divided into 4 groups of 15 mice, control (no treatment), Compound A of Example 2 above, fenofibrate and a low-cholesterol diet. The groups were matched for body weight, plasma total cholesterol (TC), HDL cholesterol (HDL-C) and triglycerides (TG) after 4 h fasting (t=0).
The test substances were administered orally as admix to the Western-type diet. To facilitate the mixing of the compounds sunflower oil was added to a total oil volume of 10 mL/kg diet. Compound (A) was tested at initially at 0.1 mmol/kg bw/day and reduced to 0.04 mmol/kg bw/day at 4 weeks; the initial dose was based on a prior dose-finding study to establish the required dosage that would reduce VLDL/LDL cholesterol by 25-30%. The fenofibrate dose was initially 10 mg/kg bw/day, and later reduced to 4.2 mg/kg bw/day to parallel reductions in VLDL/LDL cholesterol induced by Compound A.
At t=0 and t=17 weeks, blood samples were taken after a 4 hour-fast period to measure plasma cholesterol and triglycerides. Atherosclerosis development in aortic root (total lesion area) was measured at sacrifice.
The results for total cholesterol (mM), HDL cholesterol (mM), lesion area (μm^2*1000) and undiseased segments (%) are shown in FIGS. 4, 5, 6, and 7, respectively.

For CC/C=C\C/C=C\C/C=C\C/C=C\C/C=C\CCCCOC(CC)C(=O)O (stereo not shown) [Compound A, 2-((5Z,8Z,11Z,14Z,17Z)-icosa-5,8,11,14,17-pentaenyloxy)butanoic acid], the Efficacy [1] was “inactive”, the EC50 [1] was “inactive” and the Efficacy [2] was 82%. For the same molecule, the Efficacy [3] was 22%, the development of atherosclerosis ([4]; APOE*3Leiden.CETP transgenic mice, overall conclusion) was “inhibits” and the lesion area ([4]; aortic root, at sacrifice, as compared to control, p<0.003) was “significantly decreased”. For the same molecule, the total cholesterol ([4]; as compared to control, p<0.001, oral admix to Western-type diet, 0.1 then 0.04 mmol/kg bw/day, t=17 weeks) was “significantly decreased” and the HDL cholesterol ([4]; as compared to control, p<0.003, oral admix to Western-type diet, 0.1 then 0.04 mmol/kg bw/day, t=17 weeks) was “significantly increased”.

In the case of CC/C=C\C/C=C\C/C=C\C/C=C\C/C=C\CCCCO[C@H](CC)C(=O)O [Compound C, (R)-2-((5Z,8Z,11Z,14Z,17Z)-icosa-5,8,11,14,17-pentaenyloxy)butanoic acid], the Efficacy [1] was “inactive”, the EC50 [1] was “inactive” and the Efficacy [2] was 54%. The Efficacy [3] was 25%.

In the case of CC/C=C\C/C=C\C/C=C\C/C=C\C/C=C\CCCCO[C@@H](CC)C(=O)O [Compound B, (S)-2-((5Z,8Z,11Z,14Z,17Z)-icosa-5,8,11,14,17-pentaenyloxy)butanoic acid], the Efficacy [1] was “inactive”, the EC50 [1] was “inactive” and the Efficacy [2] was 86%. It also gave an Efficacy [3] of 27%.
